Laboratory results published in article PMC10698194 (Nature Communications, 2023).
Values joined by “and” are separate entries in the source; they are usually repeats but may differ in a detail not shown here. Equal values may be shown once. Read-outs that look alike come from different tables or passages of the source. Bridge positions count the residues as written; N and C are the ends. Square brackets hold non-standard residues; d marks the D form. Peptide text beside a SMILES is read from it. * marks the point of attachment. X1 = C=CCN1CC[C@]23c4c5ccc(O)c4O[C@H]2[C@H](N*)CC[C@@]3(O)[C@H]1C5

What was measured:
[1] = molecular target: T1, human MOR (Homo sapiens, UniProt P35372); assay: [35S]GTPγS binding assay, CHO membranes; assay type: biochemical; details: [35S]GTPγS
T1 construct: expressed in transfected cells

[2] = molecular target: mouse KOR, Gαi3 (Mus musculus, UniProt P33534); assay: TRUPATH BRET G protein assay, Gαi3; assay type: cell-based; details: read-out: Emax (%) Gαi3
[3] = molecular target: mouse KOR, GαoB (Mus musculus, UniProt P33534); assay: TRUPATH BRET G protein assay, GαoB; assay type: cell-based; details: read-out: Emax (%) GαoB
[4] = system: male SWISS mice; assay: Formalin test (pain behavior, phase II); assay type: in vivo, mouse; details: for Formalin test (duration of pain behaviour): individual mice, listed as DNCP-ß-NalA (1)
[5] = system: male SWISS mice; assay: CFA-induced inflammatory hyperalgesia, Hargreaves test; assay type: in vivo, mouse; details: for CFA-induced inflammatory hyperalgesia (paw withdrawal latency): individual mice, listed as DNCP-ß-NalA (1)
Protocol: CFA-induced inflammatory hyperalgesia was induced in male SWISS mice (8–10 weeks old, 30–35 g body weight, n = 53 mice) by s.c. injection of 20 µL emulsified CFA (1 mg mL^−1) into the plantar surface of the right hindpaw under brief isoflurane anesthesia. Nociceptive testing was performed 72 h after inoculation with CFA. Hindpaws withdrawal latencies to thermal stimulation were measured using the Hargreaves test[84] with an analgesiometer (Ugo Basile S.R.L., Varese, Italy). Male mice were habituated in individual Plexiglas boxes positioned on a glass surface (Ugo Basile S.R.L., Varese, Italy) for three days prior to the inoculation with CFA. A movable infrared generator (30% intensity) located under the glass floor was focused onto the plantar surface of the hindpaw and switched on to heat. Onset of the radiant stimulus triggered a timer, which was stopped by subsequent paw movement. To prevent tissue damage, a cut-off time of 20 s was imposed. […] The paw withdrawal latencies to thermal stimulus was expressed in seconds.

[6] = system: male SWISS mice; assay: Paw thickness 60 min after formalin injection; assay type: in vivo, mouse; details: for Paw thickness: individual mice, listed as DNCP-ß-NalA (1)
Protocol: Sixty min after injection of formalin to male mice, maximal paw thickness of the right hind paw (i.e., formalin-injected hind paw) was measured using a digital micrometer (FixPoint, Vienna, Austria). Data are expressed in mm.

[7] = system: male SWISS mice; assay: Rotarod test (motor coordination/sedation); assay type: in vivo, mouse; details: DNCP-β-NalA(1) 3.8 and 7.6, U50,488 5.4 µmol kg^−1 s.c.
Protocol: The rotarod test was used to evaluate coordinated locomotion and potential sedation induced by test drugs. […] Male SWISS mice (8–10 weeks old, 30–35 g body weight, n = 21 mice) were habituated to the equipment in two training sessions (30 min apart) one day before testing. On the experimental day, male mice were placed on the rotarod, and treadmill was accelerated from 4 to 40 rotations-per-minute over a period of 5 min. […] Decreased latencies to fall in the rotarod test indicate impaired motor performance. A 300 s cut-off time was used. The rotarod data are expressed as percentage (%) changes from the rotarod latencies obtained before (baseline) and after drug administration (test, T) were calculated as 100*(T/B).

[8] = molecular target: T2, human KOR WT (Homo sapiens, UniProt P41145); assay: cAMP inhibition assay normalized to salvinorin A; assay type: cell-based; details: KOR WT; normalized to salvinorin A
T2 construct: FLAG; expressed in transfected cells; host or cells: HEK293T, transient

[9] = molecular target: T2, human KOR WT; assay type: cell-based; details: HEK-293T, KOR WT
[10] = molecular target: T3, human KOR M142A (Homo sapiens, UniProt P41145, M142A); assay type: cell-based; details: HEK-293T
T3 construct: FLAG; expressed in transfected cells; host or cells: HEK293 / HEK293T, transient

[11] = molecular target: T4, human KOR I316A (Homo sapiens, UniProt P41145, I316A); assay type: cell-based; details: HEK-293T
T4 construct: FLAG; expressed in transfected cells; host or cells: HEK293 / HEK293T, transient

[12] = molecular target: T5, human KOR E209A (Homo sapiens, UniProt P41145, E209A); assay type: cell-based; details: HEK-293T, KOR E209A
T5 construct: FLAG; expressed in transfected cells; host or cells: HEK293 / HEK293T, transient

[13] = molecular target: T6, human KOR L309A (Homo sapiens, UniProt P41145, L309A); assay type: cell-based; details: HEK-293T, KOR L309A
T6 construct: FLAG; expressed in transfected cells; host or cells: HEK293T

[14] = molecular target: T7, human KOR Y312A (Homo sapiens, UniProt P41145, Y312A); assay type: cell-based
T7 construct: FLAG; expressed in transfected cells; host or cells: HEK293T

[15] = molecular target: T5, human KOR E209A; assay: BRET β-arrestin-2 biosensor assay; assay type: cell-based; details: KOR E209A
[16] = molecular target: T8, human KOR H304A (Homo sapiens, UniProt P41145, H304A); assay: BRET β-arrestin-2 biosensor assay; assay type: cell-based
T8 construct: FLAG; expressed in transfected cells; host or cells: HEK293T

[17] = molecular target: T7, human KOR Y312A; assay: BRET β-arrestin-2 biosensor assay; assay type: cell-based
[18] = molecular target: mouse KOR (Mus musculus, UniProt P33534); assay: cell-based; parameters: expressed in transfected cells; host or cells: HEK293T, transient; details: HEK-293T, read-out: Emax β-arrestin-2 recruitment
[19] = nor-BNI 13.6 µmol kg^−1 s.c. pretreatment

T7 sequence (P41145 whole entry Y312A): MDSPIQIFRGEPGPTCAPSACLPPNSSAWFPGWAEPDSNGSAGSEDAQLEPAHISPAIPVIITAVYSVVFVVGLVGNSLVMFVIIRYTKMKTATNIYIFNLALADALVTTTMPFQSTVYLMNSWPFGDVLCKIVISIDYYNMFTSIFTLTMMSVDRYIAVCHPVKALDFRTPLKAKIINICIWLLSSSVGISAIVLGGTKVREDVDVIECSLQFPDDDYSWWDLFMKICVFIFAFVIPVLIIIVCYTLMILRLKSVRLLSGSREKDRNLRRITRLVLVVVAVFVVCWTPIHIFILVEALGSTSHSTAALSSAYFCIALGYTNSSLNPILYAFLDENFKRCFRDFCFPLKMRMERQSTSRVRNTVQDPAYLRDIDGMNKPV
T2 sequence (P41145 whole entry): as the sequence (P41145 whole entry Y312A) above, with A312Y counted along it
T5 sequence (P41145 whole entry E209A): as the sequence (P41145 whole entry Y312A) above, with E209A, A312Y counted along it
T3 sequence (P41145 whole entry M142A): as the sequence (P41145 whole entry Y312A) above, with M142A, A312Y counted along it
T1 sequence (P35372 whole entry): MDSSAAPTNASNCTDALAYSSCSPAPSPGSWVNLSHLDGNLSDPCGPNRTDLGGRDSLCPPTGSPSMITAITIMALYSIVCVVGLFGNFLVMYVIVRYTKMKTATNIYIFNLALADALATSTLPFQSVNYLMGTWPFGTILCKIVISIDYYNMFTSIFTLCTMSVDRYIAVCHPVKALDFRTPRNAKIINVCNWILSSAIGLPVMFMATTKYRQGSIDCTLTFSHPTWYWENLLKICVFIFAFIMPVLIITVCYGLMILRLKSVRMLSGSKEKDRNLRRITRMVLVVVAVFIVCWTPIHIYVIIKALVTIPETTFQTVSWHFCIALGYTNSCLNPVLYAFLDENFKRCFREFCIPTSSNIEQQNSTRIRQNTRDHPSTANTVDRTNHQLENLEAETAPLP
Chain of mouse KOR, Gαi3 (P33534 whole entry): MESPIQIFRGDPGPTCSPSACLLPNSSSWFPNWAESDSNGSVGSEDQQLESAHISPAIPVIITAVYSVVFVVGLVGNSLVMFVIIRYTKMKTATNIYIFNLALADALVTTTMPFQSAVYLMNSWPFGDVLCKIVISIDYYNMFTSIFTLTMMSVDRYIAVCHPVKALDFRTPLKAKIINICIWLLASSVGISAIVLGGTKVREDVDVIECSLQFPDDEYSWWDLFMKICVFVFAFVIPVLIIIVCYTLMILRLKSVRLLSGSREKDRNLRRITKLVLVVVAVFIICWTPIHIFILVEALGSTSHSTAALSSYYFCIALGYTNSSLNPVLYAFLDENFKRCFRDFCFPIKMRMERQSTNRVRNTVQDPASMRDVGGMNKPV
Chain of mouse KOR, Gαi3 (P08754 2-354 partner): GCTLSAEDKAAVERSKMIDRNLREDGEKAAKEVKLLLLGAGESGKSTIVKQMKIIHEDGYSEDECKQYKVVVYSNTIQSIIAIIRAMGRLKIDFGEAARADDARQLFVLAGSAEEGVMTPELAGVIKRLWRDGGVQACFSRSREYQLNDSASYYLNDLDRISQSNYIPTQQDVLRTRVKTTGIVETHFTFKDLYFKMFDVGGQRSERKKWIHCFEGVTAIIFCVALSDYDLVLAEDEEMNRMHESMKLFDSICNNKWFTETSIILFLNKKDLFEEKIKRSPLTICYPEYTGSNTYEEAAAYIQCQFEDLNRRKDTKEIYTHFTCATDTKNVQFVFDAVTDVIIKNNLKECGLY
Chain of mouse KOR, GαoB (P33534 whole entry): as the sequence (P33534 whole entry) above
Chain of mouse KOR, GαoB (P09471 2-354 partner): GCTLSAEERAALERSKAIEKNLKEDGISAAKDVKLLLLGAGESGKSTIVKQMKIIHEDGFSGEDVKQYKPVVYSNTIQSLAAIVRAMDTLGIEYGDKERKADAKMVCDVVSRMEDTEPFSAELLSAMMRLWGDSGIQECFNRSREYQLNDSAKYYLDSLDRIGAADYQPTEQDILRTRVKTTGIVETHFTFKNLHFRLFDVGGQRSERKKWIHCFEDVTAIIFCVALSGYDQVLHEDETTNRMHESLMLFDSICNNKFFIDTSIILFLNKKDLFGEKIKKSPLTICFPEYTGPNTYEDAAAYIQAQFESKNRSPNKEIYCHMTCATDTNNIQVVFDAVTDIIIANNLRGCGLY
Chain of mouse KOR (P33534 whole entry): as the sequence (P33534 whole entry) above
Chain of mouse KOR (P32121 whole entry partner): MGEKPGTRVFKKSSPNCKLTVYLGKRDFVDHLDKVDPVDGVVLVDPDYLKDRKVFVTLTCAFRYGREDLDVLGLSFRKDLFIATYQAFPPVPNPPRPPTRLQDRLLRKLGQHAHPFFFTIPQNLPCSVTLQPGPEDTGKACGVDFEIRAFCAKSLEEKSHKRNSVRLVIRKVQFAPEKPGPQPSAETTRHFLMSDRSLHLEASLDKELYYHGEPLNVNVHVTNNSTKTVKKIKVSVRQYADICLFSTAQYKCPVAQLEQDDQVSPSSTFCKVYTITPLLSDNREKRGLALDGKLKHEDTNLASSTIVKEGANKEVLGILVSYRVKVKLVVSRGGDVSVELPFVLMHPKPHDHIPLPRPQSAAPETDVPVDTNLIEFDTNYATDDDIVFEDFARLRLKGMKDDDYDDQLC
T4 sequence (P41145 whole entry I316A): as the sequence (P41145 whole entry Y312A) above, with A312Y, I316A counted along it
T6 sequence (P41145 whole entry L309A): as the sequence (P41145 whole entry Y312A) above, with L309A, A312Y counted along it
T8 sequence (P41145 whole entry H304A): as the sequence (P41145 whole entry Y312A) above, with H304A, A312Y counted along it

C=CCN1CC[C@]23c4c5ccc(O)c4O[C@H]2[C@H](NC(=O)[C@@H](Cc2ccccc2)NC(=O)[C@@H](NC(=O)[C@@H]2CSCC(=O)N[C@@H](Cc4ccc(O)cc4)C(=O)N[C@@H](C)C(=O)N[C@H](Cc4ccc(O)cc4)C(=O)N[C@@H]([C@@H](C)O)C(=O)N[C@@H]([C@@H](C)O)C(=O)N2)[C@@H](C)O)CC[C@@]3(O)[C@H]1C5 [DNCP-β-NalA(1)] ({CH2CO}-YA[dY]TTCT[dF]-X1; thioether N-6)
EC50 (M) MOR [1]: no stimulation up to 10 µM | Emax [2]: 77 ± 3% | Emax [3]: 76 ± 6% | Formalin test (duration of pain behaviour) ([4]; 0.8 µmol/kg): 234 s and 278 s and 189 s and 251 s and 382 s and 247 s | Formalin test (duration of pain behaviour) ([4]; 1.9 µmol/kg): 208 s and 50 s and 189 s and 169 s and 167 s and 252 s | antagonism of antinociception by nor-BNI [4, 19]: significantly reversed the antinociceptive response | antinociceptive ED50 ([4]; s.c., male mice): 1.89 µmol/kg | effect on pain behavior ([4]; s.c., male mice): dose-dependent reduction in the pain behavior | CFA-induced inflammatory hyperalgesia (paw withdrawal latency) ([5]; 0.4 µmol/kg, time 0.5 h): 4.5 s and 3.8 s and 3.4 s and 4.3 s and 3.3 s and 4.6 s | CFA-induced inflammatory hyperalgesia (paw withdrawal latency) ([5]; 0.4 µmol/kg, time 1 h): 4.1 s and 5.3 s and 2.8 s and 3.2 s and 3 s and 2.4 s | CFA-induced inflammatory hyperalgesia (paw withdrawal latency) ([5]; 0.4 µmol/kg, time 2 h): 5.2 seconds and 3.9 seconds and 3.8 seconds and 3.4 seconds (2×) and 3.2 seconds | CFA-induced inflammatory hyperalgesia (paw withdrawal latency) ([5]; 0.4 µmol/kg, time 3 h): 4.6 seconds and 3.9 seconds and 4.1 seconds and 3.4 seconds (2×) and 2.9 seconds | CFA-induced inflammatory hyperalgesia (paw withdrawal latency) ([5]; 0.4 µmol/kg, time 4 h): 4 s and 3.6 s and 3.4 s and 3 s and 3.2 s and 2.7 s | CFA-induced inflammatory hyperalgesia (paw withdrawal latency) ([5]; 0.8 µmol/kg, time 0.5 h): 3.8 s and 4.7 s and 5.2 s and 5.9 s and 4 s and 4.4 s | CFA-induced inflammatory hyperalgesia (paw withdrawal latency) ([5]; 0.8 µmol/kg, time 1 h): 3.4 seconds and 3.5 seconds (2×) and 4.2 seconds and 3.8 seconds and 3.6 seconds | CFA-induced inflammatory hyperalgesia (paw withdrawal latency) ([5]; 0.8 µmol/kg, time 2 h): 2.7 seconds and 3.7 seconds and 3.9 seconds (2×) and 3.4 seconds and 4 seconds | CFA-induced inflammatory hyperalgesia (paw withdrawal latency) ([5]; 0.8 µmol/kg, time 3 h): 3.5 seconds (3×) and 3.1 seconds (2×) and 2.9 seconds | CFA-induced inflammatory hyperalgesia (paw withdrawal latency) ([5]; 0.8 µmol/kg, time 4 h): 2.6 seconds and 3.4 seconds and 3 seconds and 3.2 seconds and 3.1 seconds (2×) | CFA-induced inflammatory hyperalgesia (paw withdrawal latency) ([5]; 0.8 µmol/kg, time BL): 10.2 s and 11.3 s and 9.9 s and 10.1 s and 10.3 s | CFA-induced inflammatory hyperalgesia (paw withdrawal latency) ([5]; 1.9 µmol/kg, time 0.5 h): 4.2 s and 5.6 s and 7.4 s and 7.3 s and 7.2 s and 5.3 s | CFA-induced inflammatory hyperalgesia (paw withdrawal latency) ([5]; 1.9 µmol/kg, time 1 h): 3.9 seconds and 4.5 seconds (2×) and 6.6 seconds and 5 seconds and 3.5 seconds | CFA-induced inflammatory hyperalgesia (paw withdrawal latency) ([5]; 1.9 µmol/kg, time 2 h): 2.9 s and 4.1 s and 4.4 s and 3.4 s and 3.5 s and 3.8 s | CFA-induced inflammatory hyperalgesia (paw withdrawal latency) ([5]; 1.9 µmol/kg, time 3 h): 3.5 seconds (2×) and 3.8 seconds and 4.4 seconds and 3.3 seconds and 2.9 seconds | CFA-induced inflammatory hyperalgesia (paw withdrawal latency) ([5]; 1.9 µmol/kg, time 4 h): 2.5 seconds and 2.6 seconds and 2.7 seconds (2×) and 2.8 seconds and 3.5 seconds | CFA-induced inflammatory hyperalgesia (paw withdrawal latency) ([5]; 1.9 µmol/kg, time BL): 10.6 s and 9.8 s and 10 s and 10.4 s and 10.3 s | return of thermal nociceptive thresholds to basal values ([5]; after drug administration): 2 h | time of peak effect ([5]; s.c.): 15 min | effect on thermal sensitivity / paw withdrawal latencies ([5]; s.c., male mice): significantly reduced thermal sensitivity | Paw thickness ([6]; 0.8 µmol/kg): 3.47 mm and 4.51 mm and 3.9 mm and 4.44 mm and 3.64 mm and 4.36 mm | reduction of paw thickness vs saline ([6]; 1.9 µmol kg^−1 s.c.): 12 ± 2% | Paw thickness ([6]; 1.9 µmol/kg): 4.04 mm and 4.14 mm and 3.53 mm and 3.7 mm and 3.82 mm | reduction of paw thickness vs saline ([6]; 3.8 µmol kg^−1 s.c.): 17 ± 3% | antagonism of anti-inflammatory effect by nor-BNI [6, 19]: significantly reversed by pre-treatment with nor-BNI | rotarod performance / motor behavior [7]: no changes in the motor behavior | Emax [8]: 100.6 ± 0.9% | Emax [9]: 85.9 ± 1.2% | Emax [10]: 69.4 ± 1.97% | Emax [11]: 85.75 ± 0.72% | Emax [12]: 99.31 ± 0.52% | Emax [13]: 95.98 ± 0.44% | Emax ([14]; HEK-293T, KOR Y312A): 82.46 ± 0.65% | loss of potency in G protein activation ([14]; Y312A vs WT): 4 fold | Emax [15]: 87.3 ± 1.31% | Emax [16]: 34.5 ± 1.18% | Emax (%) β-arrestin-2 [17]: devoid of arrestin recruitment | BRET-βarr2 recruitment ([17]; Log [ligand] (M) -5, replicates): 0.2189 and 0.2059 and 0.2229 and 0.2169 | BRET-βarr2 recruitment ([17]; Log [ligand] (M) -7, replicates): 0.2499 (2×) and 0.2479 and 0.2279 and 0.2289 and 0.2269 | BRET-βarr2 recruitment ([17]; Log [ligand] (M) -8, replicates): 0.2479 and 0.2309 and 0.2579 and 0.2119 and 0.2179 and 0.2099 | BRET-βarr2 recruitment ([17]; Log [ligand] (M) -9, replicates): 0.2369 and 0.2529 and 0.2379 and 0.2309 and 0.2499 and 0.2069 | BRET-βarr2 recruitment ([17]; Log [ligand] (M) -10, replicates): 0.2429 and 0.2419 and 0.2489 and 0.2119 and 0.2309 and 0.2049 | BRET-βarr2 recruitment ([17]; Log [ligand] (M) -11, replicates): 0.2319 and 0.2289 and 0.2379 and 0.2249 and 0.2229 and 0.2019 | BRET-βarr2 recruitment ([17]; Log [ligand] (M) -12, replicates): 0.2219 and 0.2179 and 0.2429 and 0.2239 and 0.2299 and 0.2119 | Emax [18]: 41%
